{"source": "ChEMBL document CHEMBL5252601", "about": "“Hydroxy-xanthones as promising antiviral agents: Synthesis and biological evaluation against human coronavirus OC43” (Bioorg Med Chem Lett, 2023)", "key": {"BHK-21": {"test_system": "BHK-21", "assay": "Cytotoxicity against hamster BHK-21 cells assessed as reduction in cell viability at 10 uM measured after 3 days", "format": "toxicity, cell-based, Mesocricetus auratus", "conditions": "bhk-21, 72 h, time 3 day"}, "Human coronavirus OC43": {"test_system": "Human coronavirus OC43", "assay": "Antiviral activity against HCoV-OC43 infected in hamster BHK-21 cells assessed as inhibition of viral infectivity per ml at 10 uM measured after 3 days", "format": "functional", "conditions": "time 3 day"}}, "data": [{"compound": "COc1ccc2oc3cc(O)cc(O)c3c(=O)c2c1", "values": [{"measurement": "Activity", "setting": "BHK-21", "value": ">= 85%"}, {"measurement": "log(activity)", "setting": "Human coronavirus OC43", "value": 2.67}]}, {"compound": "O=c1c2cc(O)c(O)cc2oc2cc(O)c([C@@H]3O[C@H](CO)[C@@H](O)[C@H](O)[C@H]3O)c(O)c12", "note": "[MANGIFERIN]", "values": [{"measurement": "Activity", "setting": "BHK-21", "value": ">= 85%"}, {"measurement": "log(activity)", "setting": "Human coronavirus OC43", "value": 3}]}, {"compound": "O=c1c2c(O)cccc2oc2cc(O)cc(O)c12", "values": [{"measurement": "Activity", "setting": "BHK-21", "value": ">= 85%"}, {"measurement": "log(activity)", "setting": "Human coronavirus OC43", "value": 2}]}, {"compound": "COc1ccc2c(=O)c3c(O)cc(O)cc3oc2c1", "values": [{"measurement": "Activity", "setting": "BHK-21", "value": ">= 85%"}, {"measurement": "log(activity)", "setting": "Human coronavirus OC43", "value": 2.67}]}, {"compound": "O=C(c1ccccc1O)c1ccc(O)cc1O", "values": [{"measurement": "Activity", "setting": "BHK-21", "value": ">= 85%"}, {"measurement": "log(activity)", "setting": "Human coronavirus OC43", "value": 2.45}]}, {"compound": "O=c1c2ccccc2oc2ccccc12", "note": "[XANTHONE]", "values": [{"measurement": "Activity", "setting": "BHK-21", "value": ">= 85%"}, {"measurement": "log(activity)", "setting": "Human coronavirus OC43", "value": 2.04}]}, {"compound": "O=c1c2ccc(O)cc2oc2cccc(O)c12", "values": [{"measurement": "Activity", "setting": "BHK-21", "value": ">= 85%"}, {"measurement": "log(activity)", "setting": "Human coronavirus OC43", "value": 2.2}]}, {"compound": "O=c1c2ccccc2oc2c(O)c(O)ccc12", "note": "[3,4-DIHYDROXYXANTHONE]", "values": [{"measurement": "Activity", "setting": "BHK-21", "value": ">= 85%"}, {"measurement": "log(activity)", "setting": "Human coronavirus OC43", "value": 1.95}]}, {"compound": "Cc1ccc2c(=O)c3c(O)cc(O)cc3oc2c1", "values": [{"measurement": "Activity", "setting": "BHK-21", "value": ">= 85%"}, {"measurement": "log(activity)", "setting": "Human coronavirus OC43", "value": 2.42}]}, {"compound": "O=C(c1ccccc1O)c1ccc(O)c(O)c1O", "values": [{"measurement": "Activity", "setting": "BHK-21", "value": ">= 85%"}, {"measurement": "log(activity)", "setting": "Human coronavirus OC43", "value": 1.95}]}, {"compound": "O=c1c2cc(F)ccc2oc2cc(O)cc(O)c12", "values": [{"measurement": "Activity", "setting": "BHK-21", "value": ">= 85%"}, {"measurement": "log(activity)", "setting": "Human coronavirus OC43", "value": 2.38}]}, {"compound": "O=c1c2ccccc2oc2cc(O)cc(O)c12", "values": [{"measurement": "Activity", "setting": "BHK-21", "value": ">= 85%"}, {"measurement": "log(activity)", "setting": "Human coronavirus OC43", "value": 2.5}]}, {"compound": "Cc1ccc2oc3cc(O)cc(O)c3c(=O)c2c1", "values": [{"measurement": "Activity", "setting": "BHK-21", "value": ">= 85%"}, {"measurement": "log(activity)", "setting": "Human coronavirus OC43", "value": 2.79}]}]}
